Experimental findings from patent US20090264485A1, “Pyrazole Derivatives, Their Manufacture and Their Use as Pharmaceutical Agents” (priority 2005, published 2009) are described below.

As a reminder, the pIC50 is the negative decadic logarithm of the IC50, by convention in mol/L. Lower therefore signals a high IC50. Broadly, the melting point is the temperature, or range, at which the solid turns liquid.

pIC50: −log10 of the molar value.

In one series the test system is HEK293 cells. Nature of the series: CellTiter-Glo Luminescent Cell Viability Assay in HEK293 cells. The conditions noted are these: Homo sapiens, 168 h, 7 days incubation, CellTiter-Glo luminescence. The class given is cell-based. An excerpt: CellTiter-Glo™ Assay in HEK293 Cells
The CellTiter-Glo™ Luminescent Cell Viability Assay (Promega) is a homogeneous method of determining the number of viable cells in culture based on quantitation of the ATP present, which signals the presence of metabolically active cells.
HEK293 cells (human embryonic kidney cell line transformed by Adenovirus 5 fragments, ATCC-No. CRL 1573) were cultivated in Dulbecco's Modified Eagle Medium (DMEM) with Glutamax™ (Invitrogen, 31966-021), 5% Fetal Calf Serum (FCS, Sigma Cat-No. F4135 (FBS)), 100 Units/ml penicillin/100 μg/ml streptomycin (=Pen/Strep from Invitrogen Cat. No. 15140). For the assay the cells were seeded in 384 well plates, 5000 cells per well, in the same medium. The next day the test compounds were added in various concentrations ranging from 3 μM to 0.00015 μM (10 concentrations, 1:3 diluted). After 7 days the CellTiter-Glo™ assay was done according to the instructions of the manufacturer (CellTiter-Glo™ Luminescent Cell Viability Assay, from Promega). In brief: the cell-plate was equilibrated to room temperature for approximately 30 minutes and than the CellTiter-Glo™ reagent was added. The contents were carefully mixed for 15 minutes to induce cell lysis. After 45 minutes the luminescent signal was measured in Victor 2, (scanning multiwell spectrophotometer, Wallac).
• Medium: Dulbecco's Modified Eagle Medium (DMEM) with Glutamax™ (Invitrogen, 31966-021), 5% Fetal Calf Serum (FCS, Sigma Cat-No. F4135 (FBS)), Pen/Strep (Invitrogen Cat. No. 15140). • HEK293 (ATCC-No. CRL 1573): 5000 cells in 60 μl per well of 384 well plate (Greiner 781098, white plates) • Incubate 24 h at 37° C., 5% CO2
In general the dilution steeps are 1:3 • a) Add 8 μl of 10 mM stock solution of compound to 72 μl DMSO • b) dilute 9×1:3 (always 30 μl to 60 μl DMSO) in this DMSO dilution row (results in 10 wells with concentrations from 1000 μM to 0.06 μM) • c) dilute each concentration 1:4.8 (10 μl compound dilution to 38 μl medium) • d) dilute each concentration 1:10 (10 μl compound dilution to 90 μl medium) • e) add 10 μl of every concentration to 60 μl medium in the cell plate • resulting in final concentration of DMSO: 0.3% in every well • and resulting in final concentration of compounds from 3 μM to 0.00015 μM • Incubate 168 h (7 days) at 37° C., 5% CO2
• Add 30 μl CellTiter-Glo™ Reagent/well, • shake 15 minutes at room temperature • incubate further 45 minutes at room temperature without shaking.
• Victor 2 scanning multiwell spectrophotometer (Wallac), Luminescence mode • Determine IC50 with XL-fit (XLfit software (ID Business Solution Ltd., Guilford, Surrey, UK)).

In turn, `Cc1cc(OCc2coc(/C=C/c3ccc(OC(F)(F)F)cc3)n2)ccc1COCCc1ccnn1C` [Example 1, 4-{3-Methyl-4-[2-(E)-(2-methyl-2H-pyrazol-3-yl)-ethoxymethyl]-phenoxymethyl}-2-[2-(4-trifluoromethoxy-phenyl)-vinyl]-oxazole] registered a melting point of 77 to 78 °C. Moreover, the pIC50 in the series with HEK293 cells was 7.02.
On the same counts, the results for `Cc1cc(OCc2coc(/C=C/c3ccc(C(F)(F)F)cc3)n2)ccc1COCCc1ccnn1C` [Example 2, 4-{3-Methyl-4-[2-(E)-(2-methyl-2H-pyrazol-3-yl)-ethoxymethyl]-phenoxymethyl}-2-[2-(4-trifluoromethyl-phenyl)-vinyl]-oxazole] are 96 to 97 °C and 6.60 to 8.30.
In turn, `Cc1cc(OCc2coc(/C=C/c3ccc(Cl)cc3)n2)ccc1COCCc1ccnn1C` [Example 3, 2-[2-(E)-(4-Chloro-phenyl)-vinyl]-4-{3-methyl-4-[2-(2-methyl-2H-pyrazol-3-yl)-ethoxymethyl]-phenoxymethyl}-oxazole] gave a melting point of 106 to 107 °C. In the series with HEK293 cells, this compound gave a pIC50 of 6.60 to 8.30.
`Cc1cc(OCc2coc(/C=C/c3ccc(C(F)(F)F)cc3F)n2)ccc1COCCc1ccnn1C` [Example 4, 2-[2-(E)-(2-Fluoro-4-trifluoromethyl-phenyl)-vinyl]-4-{3-methyl-4-[2-(2-methyl-2H-pyrazol-3-yl)-ethoxymethyl]-phenoxymethyl}-oxazole] had a pIC50 in the series with HEK293 cells of 6.60 to 8.30.
For `Cc1cc(OCc2coc(/C=C/c3ccc(OC(F)(F)F)cc3)n2)ccc1C[S+]([O-])CCc1ccnn1C` (centres unmarked) [Example 5, 4-{3-Methyl-4-[2-(2-methyl-2H-pyrazol-3-yl)-ethanesulfinylmethyl]-phenoxymethyl}-2-[2-(E)-(4-trifluoromethoxy-phenyl)-vinyl]-oxazole], the melting point lay within 138 to 139 °C.
Take `Cc1cc(OCc2coc(/C=C/c3ccc(Cl)cc3)n2)ccc1C[S+]([O-])CCc1ccnn1C` (centres unmarked) [Example 6, 2-[2-(E)-(4-Chloro-phenyl)-vinyl]-4-{3-methyl-4-[2-(2-methyl-2H-pyrazol-3-yl)-ethanesulfinylmethyl]-phenoxymethyl}-oxazole]: the melting point fell in the range of 169 to 171 °C. Moreover, in the series with HEK293 cells, the pIC50 is 6.60 to 8.30.
The matching figures for `Cc1cc(OCc2coc(/C=C/c3ccc(C(F)(F)F)cc3)n2)ccc1C[S+]([O-])CCc1ccnn1C` (centres unmarked) [Example 7, 4-{3-Methyl-4-[2-(2-methyl-2H-pyrazol-3-yl)-ethanesulfinylmethyl]-phenoxymethyl}-2-[2-(E)-(4-trifluoromethyl-phenyl)-vinyl]-oxazole]: 161 to 162 °C and 6.60 to 8.30.
`Cn1nccc1CC[S+]([O-])Cc1ccc(OCc2coc(/C=C/c3ccc(OC(F)(F)F)cc3)n2)cc1` (centres unmarked) [Example 8, 4-{4-[2-(2-Methyl-2H-pyrazol-3-yl)-ethanesulfinylmethyl]-phenoxymethyl}-2-[2-(E)-(4-trifluoromethoxy-phenyl)-vinyl]-oxazole] returned a melting point of 144 to 146 °C. Besides, the pIC50 with HEK293 cells is 6.00 to 6.60.
In turn, `Cn1nccc1CC[S+]([O-])Cc1ccc(OCc2coc(/C=C/c3ccc(C(F)(F)F)cc3)n2)cc1` (centres unmarked) [Example 9, 4-{4-[2-(2-Methyl-2H-pyrazol-3-yl)-ethanesulfinylmethyl]-phenoxymethyl}-2-[2-(E)-(4-trifluoromethyl-phenyl)-vinyl]-oxazole] yielded a melting point of 172 to 174 °C. Besides, the pIC50 with HEK293 cells is 6.00 to 6.60.
Consider `Cn1nccc1CCS(=O)(=O)Cc1ccc(OCc2coc(/C=C/c3ccc(C(F)(F)F)cc3)n2)cc1` [Example 10, 4-{4-[2-(2-Methyl-2H-pyrazol-3-yl)-ethanesulfonylmethyl]-phenoxymethyl}-2-[2-(4-trifluoromethyl-phenyl)-vinyl]-oxazole], for which the melting point turned out to be 204 °C.
